From patent publication US4708961A, “Acylindole derivatives and their use in pharmaceutical compositions” (priority 1983, dated 1987) come the findings set out here.

The test system of series [1] is collagen induced platelet-aggregation (Platelet Rich Plasma). Put plainly: Inhibition of platelet-aggregation (collagen induced, aggregometer, rat PRP). Format: cell-based, Wistar-strain male rats. The following applies: for IC50: same manner (collagen), male rats weighing 500-700 g; for Platelet Aggregation (%): control 58 ± 1. Here is the method:
(2) Inhibition of platelet-aggregation
Groups of 5 Wistar-strain male rats (weighing 250-300 g) were used for collection of blood from abdominal aorta in the presence of sodium citric acid under anesthesia with ether. The obtained material was centrifuged at 200×g for 8 minutes to give Platelet Rich Plasma (PRP) from the supernatant. Further centrifugation was carried out at 1500×g for 15 minutes to obtain Platelet Poor Plasma (PPP) from the supernatant.
Platelet-aggregation was measured by aggregometer. 5 μl of the solution of the examined compound was added to 450 μl of the above-mentioned PRP and incubated for 1 minute at 37° C., after that a coagulant was added thereto. Collagen was used as the coagulant (final concentration was 4 μg/ml). Test compound was dissolved in DMSO (dimethylsulfoxide).
In the same manner as indicated above using Wister strain male rats weighing 500-700 g, example of the results is shown in Table 2.

For the next series, the system named is ddy-strain male mice. Put plainly: Acute toxicity test. Type of series: in vivo. The following applies: 4000 mg/kg, orally administered, groups of 5 ddy-strain male mice fasted for 18 hours. As to the method:
4000 mg/kg of the compound of the invention were orally administered to groups of 5 ddy-strain male mice which were fasted for 18 hours.

Where [2] appears, read: 300 μM, collagen 4 μg/ml, PRP of Wistar-strain male rats 250-300 g, 1 minute at 37° C.
The mark [3] stands for this setting: Rattus norvegicus, Platelet, 1 min, 300 μM, collagen 4 μg/ml, PRP of Wistar-strain male rats 250-300 g, 1 minute at 37° C., read-out: Inhibition rate (%).

For orientation: IC50 means the concentration at which inhibition is half-maximal. A higher IC50 goes with weaker potency in that assay. For the molecule `O=C(c1ccc(OCCCO)cc1)c1c[nH]c2ccccc12` [compound 23, 3-[p-(3-hydroxypropoxy)benzoyl]indole], inhibition in series [1] (Rattus norvegicus, Platelet) was half-maximal at 52 µM (IC50).

Turning to `O=C(c1ccc(O)cc1)c1c[nH]c2ccccc12` [compound 3, 3-(p-hydroxybenzoyl)indole], the “mortality (none of the mice were died)” value in the series with ddy-strain male mice is “none of the mice were died”. The “Platelet Aggregation (%)” value in series [1] (setting [2]) is reported as 7 ± 3%. Further, in series [1] (Rattus norvegicus, Platelet), the IC50 is 27 µM.

As to `COc1ccccc1C(=O)c1c[nH]c2ccccc12` [compound 2, 3-(o-methoxybenzoyl)indole], the “mortality (none of the mice were died)” value in the series on ddy-strain male mice is given as “none of the mice were died”. Besides, in series [1] (setting [2]), the “Platelet Aggregation (%)” value stood at 7 ± 4%. Further, in series [1] (Rattus norvegicus, Platelet), the IC50 worked out at 29 µM.

`O=C(c1ccc(OCC(O)CO)cc1)c1cn(CC(O)CO)c2ccccc12` (stereo not drawn) [compound 18, 3-[p-(2,3-dihydroxypropoxy)benzoyl]-N-(2,3-dihydroxypropyl)indole] came in with a half-inhibitory concentration (IC50) in series [1] (Rattus norvegicus, Platelet) of 94 µM.

A word on the inhibition: it is how much of the control response was suppressed. Consider `COc1ccc(C(=O)c2cn(C(C)=O)c3ccccc23)cc1` [compound 5, 3-(p-methoxybenzoyl)-N-acetylindole], for which, in the series with ddy-strain male mice, the “mortality (none of the mice were died)” value is “none of the mice were died”. Besides, in series [1] (200 μM, collagen 4 μg/ml, PRP of Wistar-strain male rats 250-300 g, 1 minute at 37° C.), the “Platelet Aggregation (%)” value is recorded as 33 ± 1%. Besides, in series [1] (Rattus norvegicus, Platelet, 1 min, 200 μM, collagen 4 μg/ml, PRP of Wistar-strain male rats 250-300 g, 1 minute at 37° C., read-out: Inhibition rate (%)), the inhibition at 200 µM came to 43%. In series [1] (Rattus norvegicus, Platelet), the IC50 was 29 µM.

Take `CC(=O)Oc1ccc(C(=O)c2cn(C(C)=O)c3ccccc23)cc1` [compound 7, 3-(p-acetoxybenzoyl)-N-acetylindole]: the “mortality (none of the mice were died)” value in the series with ddy-strain male mice is recorded as “none of the mice were died”. Besides, the “Platelet Aggregation (%)” value in series [1] (setting [2]) worked out at 7 ± 1%. Moreover, the inhibition at 300 µM in series [1] (setting [3]) was determined as 88%. Moreover, the IC50 in series [1] (Rattus norvegicus, Platelet) is 21 µM.

`O=C(c1ccccc1OCC(O)CO)c1cn(CC(O)CO)c2ccccc12` (stereo not drawn) [compound 20]: in series [1] (Rattus norvegicus, Platelet), the IC50 turned out to be 108 µM.

Take `COc1ccc2c(c1)c(CC(=O)O)c(C)n2C(=O)c1ccc(Cl)cc1` [Indomethacin, reference compound]: the IC50 in series [1] (Rattus norvegicus, Platelet) amounted to 27 µM.

Regarding `CC(C)Oc1ccc(C(=O)c2c[nH]c3ccccc23)cc1` [compound 9, 3-(p-isopropoxybenzoyl)indole], in the series on ddy-strain male mice, the “mortality (none of the mice were died)” value is “none of the mice were died”. Also, the “Platelet Aggregation (%)” value in series [1] (setting [2]) turned out to be 8 ± 3%.

With `O=C(c1ccccc1O)c1c[nH]c2ccccc12` [compound 4, 3-(o-hydroxybenzoyl)indole], the “mortality (none of the mice were died)” value with ddy-strain male mice is “none of the mice were died”. Moreover, the “Platelet Aggregation (%)” value in series [1] (setting [2]) worked out at 8 ± 5%. The molecule also returned an IC50 in series [1] (Rattus norvegicus, Platelet) of 23 µM.

Molecule `O=C(c1ccc(O)cc1)c1cn(CC(O)CO)c2ccccc12` (stereo not drawn) [compound 17, 3-(p-hydroxybenzoyl)-N-(2,3-dihydroxypropyl)indole] registered an IC50 in series [1] (Rattus norvegicus, Platelet) of 85 µM. In other words, the double-digit micromolar range.

For the molecule `COc1ccc(C(=O)c2c[nH]c3ccccc23)cc1` [compound 1, 3-(p-methoxybenzoyl)indole], in the series on ddy-strain male mice, the “mortality (none of the mice were died)” value is reported as “none of the mice were died”. Further, the “Platelet Aggregation (%)” value in series [1] (setting [2]) is reported as 22 ± 5%. Further, the inhibition at 300 µM in series [1] (setting [3]) was found to be 62%. The molecule also registered an IC50 in series [1] (Rattus norvegicus, Platelet) of 30 µM.

As for `COc1ccc(C(=O)c2cn(C)c3ccccc23)cc1` [compound 8, 3-(p-methoxybenzoyl)-N-methylindole], the “mortality (none of the mice were died)” value in the series on ddy-strain male mice was “none of the mice were died”. The same molecule had an IC50 in series [1] (Rattus norvegicus, Platelet) of 23 µM.

Take `COc1ccccc1C(=O)c1cn(C(C)=O)c2ccccc12` [compound 6, 3-(o-methoxybenzoyl)-N-acetylindole]: in the series on ddy-strain male mice, the “mortality (none of the mice were died)” value is “none of the mice were died”. In series [1] (setting [2]), the “Platelet Aggregation (%)” value was 9 ± 3%. Also, the inhibition at 300 µM in series [1] (setting [3]) is 84%. The molecule further returned an IC50 in series [1] (Rattus norvegicus, Platelet) of 18 µM.

`O=C(c1ccc(OCCCO)cc1)c1cn(CCCO)c2ccccc12` [compound 24, 3-[p-(3-hydroxypropoxy)benzoyl]-N-(3-hydroxypropyl)indole]: the IC50 in series [1] (Rattus norvegicus, Platelet) came out at 77 µM.

`O=C(c1ccccc1O)c1cn(CC(O)CO)c2ccccc12` (stereo not drawn) [compound 19, 3-(o-hydroxybenzoyl)-N-(2,3-dihydroxypropyl)indole]: in series [1] (Rattus norvegicus, Platelet), the IC50 stood at 81 µM.

On to `CC(=O)Oc1ccccc1C(=O)O` [Aspirin, reference compound], for which the “Platelet Aggregation (%)” value in series [1] (setting [2]) stood at 23 ± 4%. Also, the inhibition at 300 µM in series [1] (setting [3]) worked out at 60%.

`O=C(c1ccc(OCC(O)CO)cc1)c1c[nH]c2ccccc12` (stereo not drawn) [compound 16, 3-[p-(2,3-dihydroxypropoxy)benzoyl]indole]: the IC50 in series [1] (Rattus norvegicus, Platelet) was determined as 61 µM. That is a double-digit micromolar value.
